Laboratory results: patent publication US20200069592A1, “HSP90 INHIBITOR ORAL FORMULATIONS AND RELATED METHODS” (Samus Therapeutics, Inc., priority 2017, published 2020)

Assays:
[1] = Plasma pharmacokinetics after single oral dose in ORA-Plus or SyrSpend SF (Example 6), LC-MS/MS; assay type: in vivo, Sprague Dawley rats; settings: for AUC % Extrap / Cl_F / Vz_F / AUC(0-inf) / AUC(0-t) / Cmax / Tmax / half-life: rat plasma; for % AUC0-last test vs reference: rats, ratio of group averages; for AUC(0-inf) / AUC(0-t) / Cmax / Tmax / half-life: female, rat, plasma, po
[2] = Particle size distribution (Cilas 1180) of as-received and jet milled API (Example 8); assay type: physicochemical
Method: Compound 2 API ‘as-received’ (Lots #2064-118-8, #2064-146-9, and # BPR-WS 1828-194D(2HCl)—B1-19) were analyzed for PSD on a Cilas 1180 particle size analyzer. Subsequently jet milled API batches B # L0441-20-JM51mmP1, B # L0441-20-JM51mmP2, B # L0441-20-JM51mmP3, and B # L0441-84-JM146mmP1 were also analyzed for PSD Approximately 50 mg Compound 2-2HCl was dispersed into 40 mL 0.2% (w/w) span 80 in n-hexanes (dispersant) and allowed to mix for 60 minutes. API was kept suspended in dispersant via stirring and sonication during test.
A jet milling study was performed on a batch of Compound 2 2HCl with jet mill Fluid Energy Asset #00170 outfitted with a 51 mm collection loop. Batches B # L0441-29-JM51mmP1, B # L0441-29-JM51mmP2, and B # L0441-29-JM51mmP3 were created from ˜10 g of Compound 2 lot # BPR-WS1828-194D(2HCl)-B1-19 subjected to 3 passes. Jet mill settings for grinder nozzle and pusher nozzle as follows: Pass 1 grinder nozzle=60 psi & pusher nozzle=80 psi, Pass 2 and 3 grinder nozzle=50 psi & pusher nozzle=70 psi.
After successfully jet milling on the R&D scale, B # L0441-84-JM146mmP1 was created from Compound 2-2HCl lot # BPR-17-87-B1-21d which was processed with a single pass to confirm GMP scale up conditions in the R&D laboratory by passing 85 g through the GMP jet mill Jet-O-Mizer Asset #01 16 Model 0101 outfitted with 146 mm collection loop using a standard nylon 4×48-inch collection sock inside a PTFE 4×48-inch sock to minimize fines loss. The pressure settings for the grinder and pusher nozzle were: Grinder nozzle 60 psi, Pusher nozzle 70 psi.

[3] = Solubility of the 2HCl salt in dosing vehicle (Example 6); assay type: physicochemical; settings: SyrSpend SF Solution (dosing vehicle), aqueous with cosolvent or surfactant or cyclodextrin; pH ~2.5
Excerpt: Dose levels of Compound 2 were based on the free base, not the salt. […] Dosage forms of Compound 2 2HCl in ORA-Plus® and in SyrSpend® SF Cherry appeared to be suspension instead of clear solutions. Final physical appearance matched that of the vehicle used. Due to opaque properties of vehicles, full solubility could not be confirmed. However, resultant dosing material appeared homogenous. Dosage forms of Compound 2 2HCl in ORA-Plus® and in SyrSpend® SF Cherry were made fresh immediately prior to use.

[4] = G3: 2HCl, 24 mg/kg single oral dose, ORA-plus
[5] = G4: 2HCl, 48 mg/kg single oral dose, ORA-plus
[6] = G9: 2HCl, 24 mg/kg single oral dose, SyrSpend
[7] = G10: 2HCl, 48 mg/kg single oral dose, SyrSpend, n = 2
[8] = G11: 2HCl, 60 mg/kg single oral dose, SyrSpend, n = 4
[9] = Sprague Dawley, 24 mg/kg, G3: 2HCl, 24 mg/kg single oral dose, ORA-plus
[10] = Sprague Dawley, 24 mg/kg, G9: 2HCl, 24 mg/kg single oral dose, SyrSpend
[11] = Sprague-Dawley, 24 mg/kg, G9: 2HCl, 24 mg/kg single oral dose, SyrSpend
[12] = Sprague-Dawley, 48 mg/kg, G4: 2HCl, 48 mg/kg single oral dose, ORA-plus
[13] = Sprague-Dawley, 48 mg/kg, G10: 2HCl, 48 mg/kg single oral dose, SyrSpend
[14] = Sprague-Dawley, 60 mg/kg, G11: 2HCl, 60 mg/kg single oral dose, SyrSpend
[15] = Lot 2064-118-8, API as received
[16] = Lot 2064-146-9, API as received
[17] = Lot BPR-17-87-B1-21d, API as received
[18] = Lot BPR-17-87-B1-21d, jet milled batch B#L0441-84-JM146mmP1
[19] = Lot BPR-WS1828-194D(2HCL)-B1-19, API as received
[20] = Lot BPR-WS1828-194D(2HCL)-B1-19, jet milled batch B#L0441-20-JM51mmP1
[21] = Lot BPR-WS1828-194D(2HCL)-B1-19, jet milled batch B#L0441-20-JM51mmP2
[22] = Lot BPR-WS1828-194D(2HCL)-B1-19, jet milled batch B#L0441-20-JM51mmP3

## CC(C)(C)CNCCn1c(Sc2cc3c(cc2I)OCO3)nc2c(N)ncnc21 [Compound 2 2HCl]
[1]; [4]
  AUC % Extrap: 4.00 ± 1.84%
  Cl_F: 357.3 ± 155 mL/min/kg
  Vz_F: 81.00 ± 80.22 L/kg
[1]; [5]
  AUC % Extrap: 1.32 ± 2.64%
  Cl_F: 154 ± 76.5 mL/min/kg
  Vz_F: 28.42 ± 13.10 L/kg
[1]; [6]
  AUC % Extrap: 4.72 ± 4.49%
  Cl_F: 405.8 ± 204.3 mL/min/kg
  Vz_F: 129.96 ± 81.45 L/kg
[1]; [7]
  AUC % Extrap: 2.05 ± 0.35 %
  Cl_F: 124 ± 23 mL/min/kg
  Vz_F: 45.95 ± 8.11 L/kg
[1]; [8]
  AUC % Extrap: 0.68 ± 0.89 %
  Cl_F: 219.2 ± 72.5 mL/min/kg
  Vz_F: 55.47 ± 25.73 L/kg
[1]; Group 3 (24 mg/kg 2HCl ORA-plus) vs Group 9 (24 mg/kg 2HCl SyrSpend)
  % AUC0-last test vs reference: 109.55%
[1]; Group 4 (48 mg/kg 2HCl ORA-plus) vs Group 10 (48 mg/kg 2HCl SyrSpend)
  % AUC0-last test vs reference: 73.71%
[1]; Group 9 (24 mg/kg 2HCl SyrSpend) vs Group 10 (48 mg/kg 2HCl SyrSpend)
  % AUC0-last test vs reference: 13.71%
[1]; Group 9 (24 mg/kg 2HCl SyrSpend) vs Group 11 (60 mg/kg 2HCl SyrSpend)
  % AUC0-last test vs reference: 24.05%
[1]; Group 10 (48 mg/kg 2HCl SyrSpend) vs Group 11 (60 mg/kg 2HCl SyrSpend)
  % AUC0-last test vs reference: 175.45%
[1]; [9]
  AUC(0-inf): 1340 ± 678 ng·h/mL
  AUC(0-t): 1290 ± 666 ng·h/mL
  Cmax: 407 ± 278 ng/mL
  Tmax: 1.6 ± 0.55 h
  half-life: 2.34 ± 1.76 h
[1]; [10]
  AUC(0-inf): 1240 ± 717 ng·h/mL
  AUC(0-t): 1180 ± 688 ng·h/mL
[1]; Sprague Dawley, 48 mg/kg, G10: 2HCl, 48 mg/kg single oral dose, SyrSpend
  AUC(0-t): 8580 ± 2220 ng·h/mL
[1]; Sprague Dawley, 48 mg/kg, G10: 2HCl, 48 mg/kg single oral dose, SyrSpend, n = 2
  AUC(0-inf): 6560 ± 1220 ng·h/mL
[1]; Sprague Dawley, 60 mg/kg, G11: 2HCl, 60 mg/kg single oral dose, SyrSpend
  AUC(0-t): 4890 ± 1310 ng·h/mL
[1]; Sprague Dawley, 60 mg/kg, G11: 2HCl, 60 mg/kg single oral dose, SyrSpend, n = 4
  AUC(0-inf): 4950 ± 1780 ng·h/mL
[1]; [11]
  Cmax: 270 ± 184 ng/mL
  Tmax: 1.2 ± 0.45 h
  half-life: 3.41 ± 1.24 h
[1]; [12]
  AUC(0-inf): 6370 ± 3170 ng·h/mL
  AUC(0-t): 6320 ± 3210 ng·h/mL
  Cmax: 1120 ± 429 ng/mL
  Tmax: 2.2 ± 1.1 h
  half-life: 2.18 ± 0.35 h
[1]; [13]
  Cmax: 1140 ± 311 ng/mL
  Tmax: 4 ± 1.41 h
[1]; Sprague-Dawley, 48 mg/kg, G10: 2HCl, 48 mg/kg single oral dose, SyrSpend, n = 2
  half-life: 4.28 ± 0.04 h
[1]; [14]
  Cmax: 825 ± 247 ng/mL
  Tmax: 2.6 ± 1.34 h
[1]; Sprague-Dawley, 60 mg/kg, G11: 2HCl, 60 mg/kg single oral dose, SyrSpend, n = 4
  half-life: 2.84 ± 0.83 h
[2]; [15]
  Particle size distribution d10: 12.0 μm
  Particle size distribution d50: 42.8 μm
  Particle size distribution d90: 131.6 μm
[2]; [16]
  Particle size distribution d10: 8.4 μm
  Particle size distribution d50: 23.0 μm
  Particle size distribution d90: 57.7 μm
[2]; [17]
  Particle size distribution d10: 11.6 μm
  Particle size distribution d50: 35.7 μm
  Particle size distribution d90: 98.3 μm
[2]; [18]
  Particle size distribution d10: 1.9 μm
  Particle size distribution d50: 3.9 μm
  Particle size distribution d90: 8.0 μm
[2]; [19]
  Particle size distribution d10: 11.0 μm
  Particle size distribution d50: 33.1 μm
  Particle size distribution d90: 83.0 μm
[2]; [20]
  Particle size distribution d10: 3.1 μm
  Particle size distribution d50: 7.9 μm
  Particle size distribution d90: 17.3 μm
[2]; [21]
  Particle size distribution d10: 2.3 μm
  Particle size distribution d50: 5.6 μm
  Particle size distribution d90: 11.7 μm
[2]; [22]
  Particle size distribution d10: 2.0 μm
  Particle size distribution d50: 4.8 μm
  Particle size distribution d90: 10.1 μm
[3]
  solubility: 20 to 25 mg/mL
